Assay results as given in US20090203753A1, “7-(2-amino-1-hydroxy-ethyl)-4-hydroxybenzothiazol-2(3H)-one-derivatives as beta2 adrenoreceptor agonists” (AstraZeneca AB, priority 2005, published 2009).

How the values were obtained:
[1] = molecular target: T1, recombinant human α1D receptor (Homo sapiens, UniProt P25100); assay: Adrenergic α1D selectivity assay, [3H]-prazosin binding to HEK293 membranes; conditions: read-out: α1 bind pIC50 (converted)
T1 construct: expressed in transfected cells; host or cells: HEK293
T1 sequence (P25100 1-572): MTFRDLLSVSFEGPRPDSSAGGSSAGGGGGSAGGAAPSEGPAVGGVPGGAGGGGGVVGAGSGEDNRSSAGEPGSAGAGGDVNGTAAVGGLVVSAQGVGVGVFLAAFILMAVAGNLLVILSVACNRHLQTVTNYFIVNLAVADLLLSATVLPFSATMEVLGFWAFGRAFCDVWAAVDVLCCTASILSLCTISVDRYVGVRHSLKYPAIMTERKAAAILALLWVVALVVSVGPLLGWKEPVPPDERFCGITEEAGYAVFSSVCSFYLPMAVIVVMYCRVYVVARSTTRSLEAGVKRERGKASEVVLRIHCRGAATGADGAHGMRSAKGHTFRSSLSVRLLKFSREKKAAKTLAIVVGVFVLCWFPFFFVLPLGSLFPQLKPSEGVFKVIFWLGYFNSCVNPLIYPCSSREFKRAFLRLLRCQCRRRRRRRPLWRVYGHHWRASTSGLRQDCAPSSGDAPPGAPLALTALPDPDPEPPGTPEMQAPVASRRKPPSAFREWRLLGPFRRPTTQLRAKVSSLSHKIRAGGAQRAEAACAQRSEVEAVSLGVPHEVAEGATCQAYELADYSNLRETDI
Experimental: Membranes were prepared from human embryonic kidney 293 (HEK293) cells expressing recombinant human α1D receptor. These were diluted in Assay Buffer (50 mM HEPES, 1 mM EDTA, 0.1% gelatin, pH 7.4) to provide a final concentration of membranes that gave a clear window between maximum and minimum specific binding.
Assays were performed in U-bottomed 96-well polypropylene plates. 10 μL [^3H]-prazosin (0.3 nM final concentration) and 10 μL of test compound (10× final concentration) were added to each test well. For each assay plate 8 replicates were obtained for [^3H]-prazosin binding in the presence of 10 μL vehicle (10% (v/v) DMSO in Assay Buffer; defining maximum binding) or 10 μL BMY7378 (10 μM final concentration; defining non-specific binding (NSB)). Membranes were then added to achieve a final volume of 100 μL. The plates were incubated for 2 hours at room temperature and then filtered onto PEI coated GF/B filter plates, pre-soaked for 1 hour in Assay Buffer, using a 96-well plate Tomtec cell harvester. Five washes with 250 μL wash buffer (50 mM HEPES, 1 mM EDTA, pH 7.4) were performed at 4° C. to remove unbound radioactivity. The plates were dried then sealed from underneath using Packard plate sealers and MicroScint-O (50 μL) was added to each well. The plates were sealed (TopSeal A) and filter-bound radioactivity was measured with a scintillation counter (TopCount, Packard BioScience) using a 3-minute counting protocol.
Total specific binding (B0) was determined by subtracting the mean NSB from the mean maximum binding. NSB values were also subtracted from values from all other wells.

β2 receptor = molecular target: T2, β2 receptor (Homo sapiens, UniProt P07550); assay: Alternative adrenergic β2 mediated cAMP production in H292 cells (60 minutes with test compound); type: cell-based
T2 construct: endogenous in cells; host or cells: H292 cells
Experimental: Alternative Adrenergic (β2 Mediated cAMP Production
H292 cells were grown in 225 cm2 flasks incubator at 37° C., 5% CO2 in RPMI medium containing, 10% (v/v) FBS (foetal bovine serum) and 2 mM L-glutamine.
Adherent H292 cells were removed from tissue culture flasks by treatment with Accutase™ cell detachment solution for 15 minutes. Flasks were incubated for 15 minutes in a humidified incubator at 37° C., 5% CO2. Detached cells were re-suspended in RPMI media (containing 10% (v/v) FBS and 2 mM L-glutamine) at 0.05×10^6 cells per mL. 5000 cells in 100 μL were added to each well of a tissue-culture-treated 96-well plate and the cells incubated overnight in a humidified incubator at 37° C., 5% CO2. The culture media was removed and cells were washed twice with 100 μL assay buffer and replaced with 50 μL assay buffer (HBSS solution containing 10 mM HEPES pH7.4 and 5 mM glucose). Cells were rested at room temperature for 20 minutes after which time 25 μL of rolipram (1.2 mM made up in assay buffer containing 2.4% (v/v) dimethylsulphoxide) was added. Cells were incubated with rolipram for 10 minutes after which time test compounds were added and the cells were incubated for 60 minutes at room temperature. The final rolipram concentration in the assay was 300 μM and final vehicle concentration was 1.6% (v/v) dimethylsulphoxide. The reaction was stopped by removing supernatants, washing once with 100 μL assay buffer and replacing with 50 μL lysis buffer. The cell monolayer was frozen at −80° C. for 30 minutes (or overnight).
The concentration of cAMP (cyclic adenosine monophosphate) in the cell lysate was determined using AlphaScreen™ methodology. The frozen cell plate was thawed for 20 minutes on a plate shaker then 10 μL of the cell lysate was transferred to a 96-well white plate. 40 μL of mixed AlphaScreen™ detection beads pre-incubated with biotinylated cAMP, was added to each well and the plate incubated at room temperature for 10 hours in the dark. The AlphaScreen™ signal was measured using an EnVision spectrophotometer (Perkin-Elmer Inc.) with the recommended manufacturer's settings. cAMP concentrations were determined by reference to a calibration curve determined in the same experiment using standard cAMP concentrations. Concentration response curves for agonists were constructed and data was fitted to a four parameter logistic equation to determine both the pEC50 and Intrinsic Activity. […]

T2 sequence (P07550 whole entry): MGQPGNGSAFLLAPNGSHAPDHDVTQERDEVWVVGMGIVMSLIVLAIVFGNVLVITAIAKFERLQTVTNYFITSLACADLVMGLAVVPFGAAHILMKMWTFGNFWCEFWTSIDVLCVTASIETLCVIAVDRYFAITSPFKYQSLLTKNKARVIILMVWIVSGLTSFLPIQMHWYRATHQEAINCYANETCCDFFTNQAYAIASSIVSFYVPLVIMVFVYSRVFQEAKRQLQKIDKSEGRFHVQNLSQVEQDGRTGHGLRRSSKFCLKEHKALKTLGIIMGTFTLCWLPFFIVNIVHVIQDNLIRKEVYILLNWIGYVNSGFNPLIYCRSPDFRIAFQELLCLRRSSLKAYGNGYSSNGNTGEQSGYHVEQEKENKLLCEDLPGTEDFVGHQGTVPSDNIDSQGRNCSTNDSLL

CCN(CC)CCN(CCNC[C@H](O)c1ccc(O)c2[nH]c(=O)sc12)C(=O)CCOCCc1ccccc1 [Example 7, N-[2-(Diethylamino)ethyl]-N-(2-{[(2R)-2-hydroxy-2-(4-hydroxy-2-oxo-2,3-dihydro-1,3-benzothiazol-7-yl)ethyl]amino}ethyl)-3-(2-phenylethoxy)propanamide]
IC50 [1]: 5010 nM | EC50 (β2 receptor; cAMP, 60 minutes incubation with compound, 300 μM rolipram, read-out: β2 pEC50 (converted)): 3.98 nM | β2 Int Act (β2 receptor; fraction relative to the maximum activity determined for formoterol, 60 minutes incubation): 1
